Patent US20230003721A1, “MITOTHERAPEUTICS FOR THE TREATMENT OF BRAIN DISORDERS” (The University of Florida Research Foundation, Inc., priority 2019, published 2023)
Structures can show the parent of a compound that is named as a salt. Where two headings read alike, the source gives them in different places.

Experiments:
primary neurons [1] = assay: CellTiter-Glo luminescence-based ATP assay; type: cell-based, mouse; settings: for ATP: ATP orthogonal screen, 24 h; for EC50 / Emax: Mus musculus, Primary neuron, dose response; for EC50: 15 concentrations from 6 nM to 100 uM; for Emax: maximal percent increase relative to in-plate DMSO controls, read-out: ATP (Effect-size)
Method in brief: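 Primary neurons treated from DIV13 for 24 h with compound or DMSO. After part of the medium was removed, CellTiter-Glo reagent was added; plates were shaken 10 min at 200 rpm, kept 2 min in the dark at room temperature, and luminescence read as total ATP.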

[2] = test system: primary forebrain neurons; assay: cells; settings: for EC50: Mus musculus, Neuron
Protocol: Primary forebrain cell culture and maintenance. Forebrains of P0 Mt or Mt/Ai14 pups without olfactory bulbs and meninges were collected and placed in ice cold Ca^2+ and Mg^2+ free HBSS supplemented with 2 μg/ml gentamicin, 25 mM D-glucose, 1 mM pyruvate and 20 mM HEPES. Brain tissue was digested with 0.6 mg/ml papain at 37° C. for 20 min. Forebrains were washed with plating media [Neurobasal (Gibco), 5% FBS, 4 mM GlutaMAX (Gibco), 2 μg/ml gentamicin]. The tissue was gently triturated, allowed to settle and the supernatant was filtered through a 40 μm mesh-sized cell strainer. Cells were centrifuged at 420×g for 4 min and resuspended in plating media. 15,000 cells per well were plated with 2×10^8 viral particles/ml onto black Greiner μClear (Cat #781946) or Ultra-Low Base Aurora with evaporation barrier (Cat #ABE201201B) 384-well plates (80 μl/well) pre-coated with poly-D-lysine for the primary screen and rescreen, respectively. Plating and media changes were performed using an automated Biomek FX^P liquid handling workstation. Four hr after plating, 75% of the plating media was replaced by feeding media [Neurobasal-A (Gibco), 4 mM GlutaMAX (Gibco), 2 μg/ml gentamicin, 2% B27 (Gibco)]. At DIV4, 50% of the media was exchanged with fresh feeding media supplemented with 16 μM 5-Fluoro-2′-deoxyuridine (FUdR) to prevent glial cell over-growth. At DIV8 and DIV12, additional 50% media changes were made without FUdR. Cells were maintained at 37° C. and 5% CO2; plates were topped with Breathe-Easy adhesive membranes (Greiner plates) to minimize evaporation.
Compounds and compound transfer.
Imaging. Images were captured using a GE Incell 6000 system (60× objective, 0.95 NA, 16-bit images) equipped with environmental control (37° C., 5% CO2). Mt-GFP (green channel) was imaged by confocal imaging (3 slices, Δz=0.7 μm, aperture=1.0 AU, λexc=488 nm, λem=515-535 nm). Cyto-tdTomato (red channel) and MitoTracker Orange (red channel) were imaged using confocal mode (3 slices, Δz=0.7 μm, aperture=1.0 AU, λexc=561 nm, λem=569-641 nm, MitoTracker Orange) or with widefield mode (Cyto-tdTomato). TMRM imaged for the co-localization experiments with Mt-GFP was imaged using the confocal mode (3 slices, […] aperture=1.0, λexc=488, λem=569-641 nm). For the live-dead assay, primary neurons were imaged with a 20× (widefield mode, NA 0.45) objective using λexc=561 nm and λem=569-641 nm for the propidium iodide stained dead cells (red channel), and λexc=488 nm and λem=515-535 nm for the fluorescein diacetate stained live cells (green channel). 10 fields were collected from each well, and 4 wells were imaged/condition in the live-dead assay. For all other experiments, 4 fields/well were imaged unless otherwise stated.
Automated data analysis pipeline. Most experiments utilized only Mt-GFP; some utilized both Mt-GFP and Cyto-tdTomato. The Z-projected images were preprocessed using a custom Fiji macro. For preprocessing of Mt-GFP images: background was subtracted (rolling ball, radius=3), images were median filtered (radius=1) and somatic mitochondria were removed. For removal of the somatic mitochondria, they were first segmented and then a somatic mitochondrial mask overlaid on the image.

primary neurons [3] = assay: TMRM fluorescence assay of inner mitochondrial membrane potential (ΔΨm); settings: for TMRM Primary: primary screen; for TMRM Primary / TMRM Rescreen: 24 h; for Emax / EC50: Mus musculus, Primary neuron; for Emax: read-out: TMRM (Effect-size); for EC50: read-out: TMRM-EC50
primary neurons [4] = assay: Mitochondrial morphology and neurite area after functional modulators; type: cell-based, mouse; design: key to Neurite Area: non-significant (n.s.); settings: significant change
Protocol: Mitochondrial morphology and neurite area measurements. Mitochondrial morphology and neurite area were quantified using methods described by Varkuti et al, 2020. Briefly, Cre-dependent mitochondrial targeted GFP2 (mito-GFP) ROSA26 knock-in mice were crossed with Ai14 (007908, The Jackson Laboratory) expressing cytosolic-tdTomato, and the forebrain of P0 pups were isolated and primary neurons were cultured as described above. AAV9 virus containing the iCRE sequence driven by the neuron specific CaMKII promoter was added to the cell culture at plating and 75% of the media replaced 4 h after plating. […] Z-projected images of the green channel were preprocessed (background subtraction: rolling ball, radius=3; median filtering: radius=1) and somatic mitochondria were removed (see details in Varkuti et al, Science Advances 6 (2020) eaaw8702). Red channel images were also preprocessed (tubeness filter, soma removal). Preprocessed images were segmented by GE Developer software (object-based, kernel size: 3). […] The length and circularity measurements for mitochondria were aggregated using the median and the area for neurites using the sum. After removing empty fields and outlier values from the fields, aggregated field values were averaged to well values (4 fields/well, 12 wells/compound). Robust Z-scores were calculated using DMSO-treated wells for each well ((mediancompound−medianDMSO)/median absolute deviationDMSO), well values were averaged for each compound.
A high-content assay was developed in parallel to monitor aspects of mitochondrial dynamics in primary cultured neurons that conditionally express (Cre recombinase dependent) mitochondrial-tagged GFP and cytosolic tdTomato reporters (Varkuti et al., 2020). We monitored two aspects of neuritic mitochondrial dynamics: (1) the health of mitochondria as measured by the average circularity of axonal mitochondria, since defective mitochondria targeted for mitophagy become circular in shape, and (2) the balance between fission/fusion measured by the average length of dendritic mitochondria. […] FIG. 19A illustrates the results of surveying a collection of functional modulators selected from 5 different structural clusters (FIG. 17), quantified as robust z-scores relative to DMSO-treated control neurons.

[5] = rescreen, 12.5 μM, 24 h, vs DMSO wells
[6] = 24 h, read-out: Health (Ax Mt Circularity) EC50
[7] = 24 h, read-out: Mt Content (Dend Mt CA) EC50

Structure (SMILES) | ATP (primary neurons [1]) | Dendritic Mt CA [2, 5] | Neurite Area [2, 5] | TMRM Primary (primary neurons [3]; 12.5 μM) | TMRM Rescreen (primary neurons [3]) | further results
CN1CCC(=C2c3ccccc3Sc3ccccc32)CC1 [PIMETHIXENE MALEATE] | 4.56 Z-scores | 2.57 robust Z-scores | −2.10 robust Z-scores | 3.95 Z-scores | 5.12 Z-scores | 
CN1CCN(C(c2ccccc2)c2ccccc2)CC1 [CYCLIZINE] | 5.18 Z-scores | 2.82 robust Z-scores | −0.03 robust Z-scores | 3.41 Z-scores | 5.91 Z-scores | 
COC(=O)C[C@H]1C(C)(C)[C@@H](OC(C)=O)[C@@H]2CC3C4CC(=O)O[C@@H](c5ccoc5)[C@]4(C)CCC3[C@@]1(C)C2=O (stereo partly drawn) [DIHYDROFISSINOLIDE] | 5.15 Z-scores | 2.77 robust Z-scores | 4.24 robust Z-scores | 3.94 Z-scores | 4.61 Z-scores | 
Cc1ccc(-c2cc(C(F)(F)F)nn2-c2ccc(S(N)(=O)=O)cc2)cc1 [celecoxib] | 7.57 Z-scores |  |  | 6.67 Z-scores | 4.72 Z-scores | EC50 (primary neurons [1]): 490 nM; Emax (primary neurons [1]): 20.7%; Neurite Area (primary neurons [4]): n.s.; hit in TMRM primary screen when assayed at 4 h (primary neurons [3]; 12.5 μM, 4 h): celecoxib*; Emax (primary neurons [3]): 27.5%; EC50 (primary neurons [3]): 5180 nM
Clc1ccc(Cn2c(CN3CCCC3)nc3ccccc32)cc1 [CLEMIZOLE HYDROCHLORIDE] | 4.16 Z-scores | 2.54 robust Z-scores | −0.66 robust Z-scores | 3.54 Z-scores | 5.90 Z-scores | 
CCCCOc1cc(C(=O)OCCN(CC)CC)ccc1N [benoxinate hydrochloride] | 5.57 Z-scores |  |  | 3.62 Z-scores | 6.64 Z-scores | EC50 (primary neurons [1]): 80 nM; Emax (primary neurons [1]): 21.4%; Mitochondrial Morphology (primary neurons [4]): elongated; Neurite Area (primary neurons [4]): n.s.; Emax (primary neurons [3]): 21%; EC50 (primary neurons [3]): 490 nM
Cc1ccc([C@@H]2O[C@H](CO)[C@@H](O)[C@H](O)[C@H]2O)cc1Cc1ccc(-c2ccc(F)cc2)s1 [CANAGLIFLOZIN] | 3.13 Z-scores | 2.93 robust Z-scores | 0.74 robust Z-scores | 4.55 Z-scores | 6.36 Z-scores | 
C#CCN(C)CCCOc1ccc(Cl)cc1Cl [CLORGILINE HYDROCHLORIDE] |  | 4.33 robust Z-scores | −0.36 robust Z-scores |  |  | EC50 ([2]; 24 h, read-out: Elongation (Dend Mt length) EC50): 5000 nM; EC50 [2, 6]: 300 nM; EC50 [2, 7]: 1000 nM; EC50 ([2]; 24 h, read-out: Sprouting (Neurite Area) EC50): > 25000 nM
C#CCN(C)Cc1ccccc1 [PARGYLINE HYDROCHLORIDE] |  | 3.75 robust Z-scores | 2.51 robust Z-scores |  |  | 
CCN(CC)CCOCCOC(=O)C(CC)(CC)c1ccccc1.O=C(O)CC(O)(CC(=O)O)C(=O)O [OXELAIDIN CITRATE] | 2.73 Z-scores | 2.59 robust Z-scores | −1.31 robust Z-scores | 4.27 Z-scores | 6.44 Z-scores | 
FC(F)(F)C(Cl)Br (stereo not drawn) [HALOTHANE] |  |  |  |  |  | Dendritic Mt CA [2]: 2.60 robust Z-scores; Neurite Area [2]: 2.65 robust Z-scores
O=c1cc(-c2ccccc2)oc2ccc(O)cc12 [6-HYDROXYFLAVONE] |  | 2.88 robust Z-scores | 0.69 robust Z-scores |  |  | 
C[C@@H](N)[C@@H](O)c1ccccc1 [1R,2S-PHENYLPROPYLAMINE] |  | 3.14 robust Z-scores | 1.25 robust Z-scores |  |  | 
CC1=C(/C=C/C(C)=C/C=C/C(C)=C\C(=O)O)C(C)(C)CCC1 [ISOTRETINON] |  | 2.69 robust Z-scores | 0.77 robust Z-scores |  |  | 
CNC(=O)Oc1cccc2ccccc12 [CARBARIL] |  | 2.03 robust Z-scores | −0.48 robust Z-scores |  |  | 
O=C(/C=C/c1ccc(O)cc1)c1ccccc1O [2′,4-DIHYDROXYCHALCONE] |  | 2.57 robust Z-scores | 0.01 robust Z-scores |  |  | 
OC(CCN1CCCCC1)(c1ccccc1)c1ccccc1 [PRIDINOL METHANESULFONATE] | 5.46 Z-scores | 2.86 robust Z-scores | 1.80 robust Z-scores | 5.88 Z-scores | 6.92 Z-scores | EC50 (primary neurons [1]): 1650 nM; Emax (primary neurons [1]): 15.7%; Emax (primary neurons [3]): 20.6%; EC50 (primary neurons [3]): 3900 nM
O=C(O[C@H]1CN2CCC1CC2)N1CCc2ccccc2[C@@H]1c1ccccc1 [SOLIFENACIN SUCCINATE] |  | 5.06 robust Z-scores | 1.42 robust Z-scores |  |  | 
CCCCCCOc1ccccc1C(N)=O [EXALAMIDE] | 6.10 Z-scores | 2.43 robust Z-scores | 3.42 robust Z-scores | 3.39 Z-scores | 4.57 Z-scores | 
CN1CCOC(c2ccccc2)c2ccccc2C1 (stereo not drawn) [NEFOPAM] |  | 3.74 robust Z-scores | −0.44 robust Z-scores |  |  | 
CN1CCc2cccc3c2[C@H]1Cc1ccc(O)c(O)c1-3 [APOMORPHINE HYDROCHLORIDE] |  | 2.10 robust Z-scores | −0.07 robust Z-scores |  |  | 
COc1ccccc1-c1coc2cc(O)ccc2c1=O [7-HYDROXY-2′-METHOXYISOFLAVONE] |  |  |  |  |  | EC50 [2, 6]: 200 nM; EC50 [2, 7]: > 25000 nM
